What is called EC50 is the concentration giving half of the maximal effect.

Molecules are shown by their SMILES.

One experiment deals with HBV rcDNA in HepDE19 cells. In words: HepDE19 assay with bDNA quantitation of HBV rcDNA. The class given is cell-based, hepatitis B virus (HBV). Particulars: Hepatitis B virus, HepDE19, 168 h, inhibition of rcDNA formation in HepDE19 cells (HepG2 derived), Tet-free medium, 7 day incubation, Quantigene 2.0 bDNA readout, top concentration 25 μM; read-out: DE-19bDNA EC50. The procedure, abridged:
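HepDE19 cells (HepG2-derived, Tet-regulated HBV) switched to Tet-free medium, then treated 7 days at 37 °C with compound, 8-point titration from 25 μM, 0.5% DMSO. rcDNA quantified by bDNA with HBV probes; EC50/EC90 via 4-parameter fit. Viability (CC50) by CellTiter-Glo ATP on 5,000 cells/well after 4 days.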
On to `CN1Cc2[nH]c(=O)c3cc(F)c(F)cc3c2C(N(C)C(=O)Nc2ccc(F)c(C#N)c2)C1` (single isomer, unassigned) [Compound 174, 3-(3-Cyano-4-fluorophenyl)-1-(8,9-difluoro-3-methyl-6-oxo-1,2,3,4,5,6-hexahydrobenzo[c][1,7]naphthyridin-1-yl)-1-methylurea], for which the EC50 worked out at 0.31 µM.

Staying with this experiment, now noted: inhibition of rcDNA formation in HepDE19 cells (HepG2 derived), Tet-free medium, 7 day incubation, Quantigene 2.0 bDNA readout, top concentration 25 μM; read-out: DE-19bDNA EC50.
In the case of `CC(=O)N1Cc2[nH]c(=O)c3cc(F)c(F)cc3c2C(N(C)C(=O)Nc2ccc(F)c(Cl)c2)C1` (single isomer, unassigned) [Compound 160, 1-(3-Acetyl-8,9-difluoro-6-oxo-1,2,3,4,5,6-hexahydrobenzo[c][1,7]naphthyridin-1-yl)-3-(3-chloro-4-fluorophenyl)-1-methylurea], the EC50 was determined as 0.82 µM.
Take `CN(C(=O)Nc1ccc(F)c(C#N)c1)C1CNCc2[nH]c(=O)c3cc(F)ccc3c21` (single isomer, unassigned) [Compound 161, 3-(3-Cyano-4-fluorophenyl)-1-(8-fluoro-6-oxo-1,2,3,4,5,6-hexahydrobenzo[c][1,7]naphthyridin-1-yl)-1-methylurea]: the EC50 stood at 17 µM.
In the case of `CN(C(=O)Nc1ccc(F)c(C#N)c1)C1CNCc2[nH]c(=O)c3cc(F)ccc3c21` (single isomer, unassigned) [Compound 162, 3-(3-Cyano-4-fluorophenyl)-1-(8-fluoro-6-oxo-1,2,3,4,5,6-hexahydrobenzo[c][1,7]naphthyridin-1-yl)-1-methylurea], the EC50 came to 0.17 µM.
For `CN1Cc2[nH]c(=O)c3cc(F)ccc3c2C(N(C)C(=O)Nc2ccc(F)c(C#N)c2)C1` (single isomer, unassigned) [Compound 163, 3-(3-Cyano-4-fluorophenyl)-1-(8-fluoro-3-methyl-6-oxo-1,2,3,4,5,6-hexahydrobenzo[c][1,7]naphthyridin-1-yl)-1-methylurea], the EC50 came out at 23 µM.
On the same count and under the same terms, as for `CN1Cc2[nH]c(=O)c3cc(F)ccc3c2C(N(C)C(=O)Nc2ccc(F)c(C#N)c2)C1` (single isomer, unassigned) [Compound 164, 3-(3-Cyano-4-fluorophenyl)-1-(8-fluoro-3-methyl-6-oxo-1,2,3,4,5,6-hexahydrobenzo[c][1,7]naphthyridin-1-yl)-1-methylurea], the figure is 1.3 µM; as for `CC(=O)N1Cc2[nH]c(=O)c3cc(F)ccc3c2C(N(C)C(=O)Nc2ccc(F)c(C#N)c2)C1` (single isomer, unassigned) [Compound 165, 1-(3-Acetyl-8-fluoro-6-oxo-1,2,3,4,5,6-hexahydrobenzo[c][1,7]naphthyridin-1-yl)-3-(3-cyano-4-fluorophenyl)-1-methylurea], not below 25 µM; as for `CC(=O)N1Cc2[nH]c(=O)c3cc(F)ccc3c2C(N(C)C(=O)Nc2ccc(F)c(C#N)c2)C1` (single isomer, unassigned) [Compound 166, 1-(3-Acetyl-8-fluoro-6-oxo-1,2,3,4,5,6-hexahydrobenzo[c][1,7]naphthyridin-1-yl)-3-(3-cyano-4-fluorophenyl)-1-methylurea], 11 µM.
On the same count and under the same terms, as for `CN1Cc2[nH]c(=O)c3cc(F)c(F)cc3c2C(N(C)C(=O)Nc2ccc(F)c(Cl)c2)C1` (single isomer, unassigned) [Compound 167, 3-(3-Chloro-4-fluorophenyl)-1-(8,9-difluoro-3-methyl-6-oxo-1,2,3,4,5,6-hexahydrobenzo[c][1,7]naphthyridin-1-yl)-1-methylurea], the figure is 7.6 µM; as for `CN1Cc2[nH]c(=O)c3cc(F)c(F)cc3c2C(N(C)C(=O)Nc2ccc(F)c(Cl)c2)C1` (single isomer, unassigned) [Compound 168, 3-(3-Chloro-4-fluorophenyl)-1-(8,9-difluoro-3-methyl-6-oxo-1,2,3,4,5,6-hexahydrobenzo[c][1,7]naphthyridin-1-yl)-1-methylurea], 0.18 µM; as for `CN(C(=O)Nc1ccc(F)c(Cl)c1)C1CN(CCO)Cc2[nH]c(=O)c3cc(F)ccc3c21` (single isomer, unassigned) [Compound 169, 3-(3-Chloro-4-fluorophenyl)-1-(8-fluoro-3-(2-hydroxyethyl)-6-oxo-1,2,3,4,5,6-hexahydrobenzo[c][1,7]naphthyridin-1-yl)-1-methylurea], 6.6 µM.
For the compound `CN(C(=O)Nc1ccc(F)c(Cl)c1)C1CN(CCO)Cc2[nH]c(=O)c3cc(F)ccc3c21` (single isomer, unassigned) [Compound 170, 3-(3-Chloro-4-fluorophenyl)-1-(8-fluoro-3-(2-hydroxyethyl)-6-oxo-1,2,3,4,5,6-hexahydrobenzo[c][1,7]naphthyridin-1-yl)-1-methylurea], the EC50 worked out at 3.1 µM.
In the case of `CN(C(=O)Nc1ccc(F)c(C#N)c1)C1CN(CCO)Cc2[nH]c(=O)c3cc(F)ccc3c21` (single isomer, unassigned) [Compound 171, 3-(3-Cyano-4-fluorophenyl)-1-(8-fluoro-3-(2-hydroxyethyl)-6-oxo-1,2,3,4,5,6-hexahydrobenzo[c][1,7]naphthyridin-1-yl)-1-methylurea], the EC50 came to 23 µM.
Take `CN(C(=O)Nc1ccc(F)c(C#N)c1)C1CN(CCO)Cc2[nH]c(=O)c3cc(F)ccc3c21` (single isomer, unassigned) [Compound 172, 3-(3-Cyano-4-fluorophenyl)-1-(8-fluoro-3-(2-hydroxyethyl)-6-oxo-1,2,3,4,5,6-hexahydrobenzo[c][1,7]naphthyridin-1-yl)-1-methylurea]: the EC50 is 10 µM.
Turning to `CN(C(=O)Nc1ccc(F)c(C#N)c1)C1CNCc2[nH]c(=O)c3cc(F)c(F)cc3c21` (single isomer, unassigned) [Compound 175, 3-(3-Cyano-4-fluorophenyl)-1-(8,9-difluoro-6-oxo-1,2,3,4,5,6-hexahydrobenzo[c][1,7]naphthyridin-1-yl)-1-methylurea], the EC50 was determined as 1.5 µM.
Take `CN(C(=O)Nc1ccc(F)c(C#N)c1)C1CNCc2[nH]c(=O)c3cc(F)c(F)cc3c21` (single isomer, unassigned) [Compound 176, 3-(3-Cyano-4-fluorophenyl)-1-(8,9-difluoro-6-oxo-1,2,3,4,5,6-hexahydrobenzo[c][1,7]naphthyridin-1-yl)-1-methylurea]: the EC50 came to 0.05 µM.
As to `CC(=O)N1Cc2[nH]c(=O)c3cc(F)c(F)cc3c2C(N(C)C(=O)Nc2ccc(F)c(C#N)c2)C1` (single isomer, unassigned) [Compound 177, 1-(3-Acetyl-8,9-difluoro-6-oxo-1,2,3,4,5,6-hexahydrobenzo[c][1,7]naphthyridin-1-yl)-3-(3-cyano-4-fluorophenyl)-1-methylurea], the EC50 is not below 25 µM.
As to `CC(=O)N1Cc2[nH]c(=O)c3cc(F)c(F)cc3c2C(N(C)C(=O)Nc2ccc(F)c(C#N)c2)C1` (single isomer, unassigned) [Compound 178, 1-(3-Acetyl-8,9-difluoro-6-oxo-1,2,3,4,5,6-hexahydrobenzo[c][1,7]naphthyridin-1-yl)-3-(3-cyano-4-fluorophenyl)-1-methylurea], the EC50 was 11 µM.
On the same count and under the same terms, as for `CN(C(=O)Nc1ccc(F)c(Cl)c1)C1CN(CCO)Cc2[nH]c(=O)c3cc(F)c(F)cc3c21` (single isomer, unassigned) [Compound 179, 3-(3-Chloro-4-fluorophenyl)-1-(8,9-difluoro-3-(2-hydroxyethyl)-6-oxo-1,2,3,4,5,6-hexahydrobenzo[c][1,7]naphthyridin-1-yl)-1-methylurea], the figure is 7.3 µM.

Source of the values: US20230108906A1, “SUBSTITUTED BICYCLIC AND TRICYCLIC UREAS AND AMIDES, ANALOGUES THEREOF, AND METHODS USING SAME” (Arbutus Biopharma Corporation, priority 2019, published 2023).
